How the values were obtained:
Type in all cases: functional, cell-based
SMMC-7721 = test: Cytotoxicity against human SMMC7721 cells after 48 hrs by MTT method; details: SMMC-7721, 48 h
SW480 = test: Cytotoxicity against human SW480 cells after 48 hrs by MTT method; details: SW480, 48 h
HL-60 = test: Cytotoxicity against human HL60 cells after 48 hrs by MTT method; details: HL-60, 48 h
MCF7 = test: Cytotoxicity against human MCF7 cells after 48 hrs by MTT method; details: MCF7, 48 h
A549 = test: Cytotoxicity against human A549 cells after 48 hrs by MTT method; details: A549, 48 h

Structure (SMILES): C=C1C(=O)[C@@]23[C@@H]4OC5O[C@@]2(O)[C@@H](O)[C@@H]2C(C)(C)CC[C@@H](O)[C@]52[C@@H]3CC[C@@H]14 [PONICIDIN]
- IC50 (SMMC-7721): 5 µM
- IC50 (SW480): 2.8 µM
- IC50 (HL-60): 7.4 µM
- IC50 (MCF7): 16.3 µM
- IC50 (A549): 16.5 µM

Structure (SMILES): COC[C@@H]1C(=O)[C@]23[C@H](O)[C@H]1C[C@H](O)[C@H]2[C@@]12CCCC(C)(C)[C@H]1[C@H](O)[C@@]3(O)O[C@@H]2OC [ISOADENOLIN D]
- IC50 (SMMC-7721): > 10 µM
- IC50 (SW480): > 10 µM
- IC50 (HL-60): > 10 µM
- IC50 (MCF7): > 10 µM
- IC50 (A549): > 10 µM

Structure (SMILES): C=C1[C@@H](O)[C@]23[C@H](O)[C@H]1C[C@H](O)[C@H]2[C@@]12CCCC(C)(C)[C@H]1[C@H](O)[C@@]3(O)O[C@@H]2OC [ISOADENOLIN E]
- IC50 (SMMC-7721): > 10 µM
- IC50 (SW480): > 10 µM
- IC50 (HL-60): > 10 µM
- IC50 (MCF7): > 10 µM
- IC50 (A549): > 10 µM

Structure (SMILES): C=C1C(=O)[C@]23C[C@H]1CC=C2[C@@]12CO[C@]3(O)[C@@H](O)[C@@H]1C(C)(C)CC[C@@H]2OC(C)=O [ISOADENOLIN I]
- IC50 (SMMC-7721): 3 µM
- IC50 (SW480): 3.1 µM
- IC50 (HL-60): 2.6 µM
- IC50 (MCF7): 2.6 µM
- IC50 (A549): 5 µM

Structure (SMILES): C=C1C(=O)[C@@]23[C@@H]4O[C@H]5O[C@@]2(O)[C@@H](O)[C@@H]2C(C)(C)CCC[C@]52[C@@H]3[C@@H](O)C[C@@H]14 [MACROCALIN B]
- IC50 (SMMC-7721): 9.1 µM
- IC50 (SW480): 10.9 µM
- IC50 (HL-60): 12.4 µM
- IC50 (MCF7): 26.9 µM
- IC50 (A549): 31.9 µM

Structure (SMILES): C=C1C(=O)[C@]23C[C@H]1C[C@@H](OC(C)=O)[C@H]2[C@]12CCCC(C)(C)[C@H]1[C@H](O)[C@@]3(O)OC2 [LONGIKAURIN E]
- IC50 (SMMC-7721): 1.9 µM
- IC50 (SW480): 2.4 µM
- IC50 (HL-60): 1.8 µM
- IC50 (MCF7): 1.9 µM
- IC50 (A549): 3.9 µM

Structure (SMILES): C=C1C(=O)[C@]23[C@H](O)[C@H]1CC[C@H]2[C@]12CCCC(C)(C)[C@H]1[C@H](O)[C@]3(O)OC2=O [XEROPHILUSIN N]
- IC50 (SMMC-7721): 3.6 µM
- IC50 (SW480): 3.5 µM
- IC50 (HL-60): 3.8 µM
- IC50 (MCF7): 7.9 µM
- IC50 (A549): 9.7 µM

Structure (SMILES): C=C1[C@@H](O)[C@]23[C@H](O)[C@H]1CC[C@H]2[C@@]12C(=O)O[C@]3(O)[C@@H](O)[C@@H]1C(C)(C)CC[C@@H]2OC(C)=O
- IC50 (SMMC-7721): > 10 µM
- IC50 (SW480): > 10 µM
- IC50 (HL-60): > 10 µM
- IC50 (MCF7): > 10 µM
- IC50 (A549): > 10 µM

Structure (SMILES): COC[C@H]1C(=O)[C@@]23[C@H]4O[C@H]5O[C@]2(O)[C@@H](O)[C@@H]2C(C)(C)CC[C@H](O)[C@]52[C@@H]3CC[C@@H]14 [ISOADENOLIN C]
- IC50 (SMMC-7721): > 10 µM
- IC50 (SW480): > 10 µM
- IC50 (HL-60): > 10 µM
- IC50 (MCF7): > 10 µM
- IC50 (A549): > 10 µM

Structure (SMILES): C=C1C(=O)[C@]23[C@H](O)[C@H]1CC[C@H]2[C@@]12[C@H](OC)O[C@]3(O)[C@@H](O)[C@@H]1C(C)(C)CC[C@@H]2OC(C)=O [ISOADENOLIN H]
- IC50 (SMMC-7721): > 10 µM
- IC50 (SW480): > 10 µM
- IC50 (HL-60): > 10 µM
- IC50 (MCF7): > 10 µM
- IC50 (A549): > 10 µM

Structure (SMILES): COC[C@H]1C(=O)[C@]23[C@H](O)[C@H]1CC[C@H]2[C@@]12CO[C@]3(O)[C@@H](O)[C@@H]1C(C)(C)CC[C@@H]2OC(C)=O [LASIOKAURININ]
- IC50 (SMMC-7721): 4.8 µM
- IC50 (SW480): 4.9 µM
- IC50 (HL-60): 6.8 µM
- IC50 (MCF7): 6 µM
- IC50 (A549): 20.4 µM

Structure (SMILES): C=C1C(=O)[C@@]23[C@H]4O[C@H]5O[C@]2(O)[C@@H](O)[C@@H]2C(C)(C)CC[C@H](OC(C)=O)[C@]52[C@@H]3CC[C@@H]14 [ISOADENOLIN B]
- IC50 (SMMC-7721): > 10 µM
- IC50 (SW480): > 10 µM
- IC50 (HL-60): > 10 µM
- IC50 (MCF7): > 10 µM
- IC50 (A549): > 10 µM

Structure (SMILES): C=C1[C@@H](O)[C@]23[C@H](O)[C@H]1C[C@H](O)[C@H]2[C@@]12CCCC(C)(C)[C@H]1[C@H](OC(C)=O)[C@@]3(O)O[C@@H]2OC [ISOADENOLIN F]
- IC50 (SMMC-7721): > 10 µM
- IC50 (SW480): > 10 µM
- IC50 (HL-60): > 10 µM
- IC50 (MCF7): > 10 µM
- IC50 (A549): > 10 µM

Structure (SMILES): C=C1C(=O)[C@@]23[C@@H]4O[C@H]5O[C@@]2(O)[C@@H](O)[C@@H]2C(C)(C)CCC[C@]52[C@@H]3CC[C@@H]14 [XEROPHILUSIN B]
- IC50 (SMMC-7721): 1.3 µM
- IC50 (SW480): 0.9 µM
- IC50 (HL-60): 0.8 µM
- IC50 (MCF7): 1.1 µM
- IC50 (A549): 2 µM

Structure (SMILES): CC(=O)O[C@H]1C(=O)[C@@]2(C)[C@H]([C@H](OC(=O)c3ccccc3)[C@]3(O)C[C@H](OC(=O)[C@H](O)[C@@H](NC(=O)c4ccccc4)c4ccccc4)C(C)=C1C3(C)C)[C@]1(OC(C)=O)CO[C@@H]1C[C@@H]2O [PACLITAXEL]
- IC50 (SMMC-7721): < 0.008 µM
- IC50 (SW480): < 0.008 µM
- IC50 (HL-60): 0.01 µM
- IC50 (MCF7): < 0.008 µM
- IC50 (A549): < 0.008 µM

Structure (SMILES): C=C1C(=O)[C@@]23C(=CC[C@@H]1[C@H]2O)[C@@]12CO[C@]3(O)[C@@H](O)[C@@H]1C(C)(C)CC[C@@H]2OC(C)=O [ISOADENOLIN J]
- IC50 (SMMC-7721): > 10 µM
- IC50 (SW480): > 10 µM
- IC50 (HL-60): > 10 µM
- IC50 (MCF7): > 10 µM
- IC50 (A549): > 10 µM

Structure (SMILES): C=C1C(=O)[C@]23C[C@H]1CC[C@H]2[C@@]12CO[C@@]3(O)[C@@H](O)[C@@H]1C(C)(C)CC[C@@H]2OC(C)=O [EFFUSANIN B]
- IC50 (SMMC-7721): 1 µM
- IC50 (SW480): 0.8 µM
- IC50 (HL-60): 0.7 µM
- IC50 (MCF7): 0.7 µM
- IC50 (A549): 3.5 µM

Structure (SMILES): C=C1[C@H]2C[C@]3(C(=C[C@@H]2O)[C@@]24CO[C@]3(O)[C@@H](O)[C@@H]2C(C)(C)CC[C@@H]4OC(C)=O)[C@@H]1O [ISOADENOLIN K]
- IC50 (SMMC-7721): 5.7 µM
- IC50 (SW480): 3.1 µM
- IC50 (HL-60): 3.5 µM
- IC50 (MCF7): 3 µM
- IC50 (A549): 14.1 µM

Structure (SMILES): C=C1[C@@H](O)[C@]23[C@H](O)[C@H]1C[C@H](OC(C)=O)[C@H]2[C@@]12CCCC(C)(C)[C@H]1[C@H](O)[C@@]3(O)O[C@@H]2OC [ISOADENOLIN G]
- IC50 (SMMC-7721): > 10 µM
- IC50 (SW480): > 10 µM
- IC50 (HL-60): > 10 µM
- IC50 (MCF7): > 10 µM
- IC50 (A549): > 10 µM

Structure (SMILES): C=C1C(=O)[C@]23[C@H](O)[C@H]1CC[C@H]2[C@@]12CO[C@@]3(O)[C@@H](O)[C@@H]1C(C)(C)CC[C@@H]2OC(C)=O [LASIOKAURIN]
- IC50 (SMMC-7721): 2 µM
- IC50 (SW480): 2.3 µM
- IC50 (HL-60): 3.2 µM
- IC50 (MCF7): 5.3 µM
- IC50 (A549): 7.6 µM

Structure (SMILES): C=C1[C@@H](O)[C@@]23[C@H]4O[C@H]5O[C@]2(O)[C@@H](OC(C)=O)[C@@H]2C(C)(C)CCC[C@@]52[C@@H]3[C@@H](O)C[C@@H]14 [ISOADENOLIN A]
- IC50 (SMMC-7721): > 10 µM
- IC50 (SW480): > 10 µM
- IC50 (HL-60): > 10 µM
- IC50 (MCF7): > 10 µM
- IC50 (A549): > 10 µM

Structure (SMILES): C=C1C(=O)[C@]23[C@H](O)[C@H]1CC[C@H]2[C@@]12[C@H](O)O[C@]3(O)[C@@H](O)[C@@H]1C(C)(C)CC[C@@H]2OC(C)=O [XEROPHILUSIN J]
- IC50 (SMMC-7721): 4.6 µM
- IC50 (SW480): 2.7 µM
- IC50 (HL-60): 7.6 µM
- IC50 (MCF7): 9.7 µM
- IC50 (A549): 21.7 µM

From ChEMBL document CHEMBL1799954, “Structure and cytotoxicity of diterpenoids from Isodon adenolomus” (J Nat Prod, 2011)
